The numbers were not newly measured in patent US11278512B2, “Compositions comprising a metal and L-serine, and uses thereof” (Brain Chemistry Labs, priority 2019, dated 2022), which cites them from elsewhere.

Data set [1] relates to neurofibrillary tangles (NFTs) and β-amyloid plaques.
Details of data set [2]: reduction in ALSFRS (Amyotrophic Lateral Sclerosis Functional Rating Scale): dose or concentration left out as unconfirmed.

SMILES strings stand for the structures.

As to `N[C@@H](CO)C(=O)O` [L-serine], the “misincorporation of BMAA into human neuroproteins; protein misfolding, aggregation and apoptosis induced by BMAA” value with human neuroproteins is on record as “blocks misincorporation”. Further, the “BMAA-induced microglial activation and proteinopathies along the spine, including deposition of TDP-43 and FUS” value in data set [1] (BMAA-induced) is given as “blocks”. In data set [1] (non-human primates), the “density of neurofibrillary tangles (NFTs) and β-amyloid plaques in the brain” value was “decreases the density”.
Consider `[Zn]` [Zinc, zinc], for which, in data set [2] (daily dosing with for three months, approximates the reduction achieved by Riluzole), the “reduction in ALSFRS (Amyotrophic Lateral Sclerosis Functional Rating Scale)” value was roughly 30%. The “safety when administered to ALS patients” value in data set [2] (up to 90 mg/day) is on record as “safe”.
